Patent publication US20150250210A1, “FLAVOUR ADDITIVES” (MARS INCORPORATED, priority 2012, published 2015)

tested on: T1R1/T1R3 umami receptor; assay: in silico modelling and in vitro screening for binding and activation of the umami receptor; assay type: cell-based, cat; conditions: feline umami receptor
Method: In vitro screening was carried out in order to establish which amino acids bind and activate the umami receptor.
In vitro screening was carried out in order to establish which nucleotides bind and activate the umami receptor.

Row | SMILES | binding to the feline umami receptor
1 | N[C@@H](CCC(=O)O)C(=O)O [glutamate] | does not bind

same assay, conditions: non-human umami receptor; in silico modelling and in vitro assays

Row | SMILES | ability to bind to and activate the umami receptor
2 | C[C@H](N)C(=O)O [alanine] | able to bind to and activate the umami receptor to different extents
3 | NC(=O)C[C@H](N)C(=O)O [asparagine] | able to bind to and activate the umami receptor to different extents
4 | N[C@@H](CS)C(=O)O [cysteine] | able to bind to and activate the umami receptor to different extents
5 | NCC(=O)O [glycine] | able to bind to and activate the umami receptor to different extents
6 | N[C@@H](Cc1c[nH]cn1)C(=O)O [histidine] | able to bind to and activate the umami receptor to different extents
7 | CC(C)C[C@H](N)C(=O)O [leucine] | able to bind to and activate the umami receptor to different extents
8 | CSCC[C@H](N)C(=O)O [methionine] | able to bind to and activate the umami receptor to different extents
9 | N[C@@H](Cc1ccccc1)C(=O)O [phenylalanine] | able to bind to and activate the umami receptor to different extents
10 | N[C@@H](CO)C(=O)O [serine] | able to bind to and activate the umami receptor to different extents
11 | N[C@@H](Cc1c[nH]c2ccccc12)C(=O)O [tryptophan] | able to bind to and activate the umami receptor to different extents
12 | N[C@@H](Cc1ccc(O)cc1)C(=O)O [tyrosine] | able to bind to and activate the umami receptor to different extents
